Data reported in paper PMC4629079 (Acta Pharmaceutica Sinica. B, 2014).
Like-named read-outs stand apart in the source and are kept apart here.

Tests used:
Cox B3 = experiment: Anti-Coxsackie B3 CPE inhibitory assay in Vero cells; assay type: cell-based, Coxsackie viruses (Cox B3 Nancy strain); conditions: for IC50: Cox B3, 158TCID50, CPE, Reed and Muench
HSV-1 = experiment: Anti-HSV-1 CPE assay in Vero cells; assay type: cell-based, HSV-1 virus
A/FM/1/47 = experiment: Anti-influenza A CPE inhibitory assay in MDCK cells; assay type: cell-based, influenza A/FM/1/47(H1N1); conditions: for IC50: CPE, Reed and Muench
B/Jifang/13/97 = experiment: Anti-influenza B CPE assay; assay type: cell-based

Row | Compound | IC50 (Cox B3; Vero) | IC50 (HSV-1; Human alphaherpesvirus 1, Vero) | IC50 (A/FM/1/47; Influenza A virus, MDCK) | IC50 (B/Jifang/13/97; Influenza B virus) | also measured
1 | CCOc1ccc(N)c2[nH]c(C(=O)OC)cc12 [Compound 17f, Methyl 7-amino-4-ethoxy-1H-indole-2-carboxylate] | 10.6 µM | 10.6 µM | > 10.6 µM | – | activity towards HSV-1 (in words) (HSV-1): showed activity
2 | COC(=O)c1cc2c(OC3CC3)cc(N)cc2[nH]1 [Compound 7f, Methyl 6-amino-4-cyclopropoxy-1H-indole-2-carboxylate] | 49.4 µM | > 85.5 µM | > 85.5 µM | – | –
3 | COC(=O)c1cc2c(OC)ccc(N)c2[nH]1 [Compound 16f, Methyl 7-amino-4-methoxy-1H-indole-2-carboxylate] | > 33.7 µM | > 33.7 µM | > 3.73 µM | – | –
4 | COC(=O)c1cc2c(OCc3ccc(OC)cc3)cc(N)cc2[nH]1 [Compound 4f, Methyl 6-amino-4-(4-methoxybenzyloxy)-1H-indole-2-carboxylate] | > 7.58 µM | > 7.58 µM | > 205 µM | – | –
5 | COC(=O)c1cc2c(OC)cc(N)cc2[nH]1 [Compound 1f, Methyl 6-amino-4-methoxy-1H-indole-2-carboxylate] | > 33.7 µM | > 33.7 µM | < 52 µM | > 33.7 µM | IC50 (A/FM/1/47): 33.7 µM
6 | COC(=O)c1cc2c(OCC3CCCCC3)cc(N)cc2[nH]1 [Compound 5f, Methyl 6-amino-4-(cyclohexylmethoxy)-1H-indole-2-carboxylate] | > 2.71 µM | > 8.15 µM | > 8.15 µM | – | –
7 | COC(=O)c1cc2c(OC)cccc2[nH]1 [Compound 11e, Methyl 4-methoxy-1H-indole-2-carboxylate] | 108 µM | > 108 µM | 62.6 µM | > 108 µM | –
8 | NC(=O)c1ncn([C@@H]2O[C@H](CO)[C@@H](O)[C@H]2O)n1 [RBV, ribavirin, reference compound] | 1060 µM | – | 2.58 µM | 10.1 µM | –
9 | COC(=O)c1cc2c(OCc3ccccc3)cc(OC)cc2[nH]1 [Compound 12e, Methyl 4-(benzyloxy)-6-methoxy-1H-indole-2-carboxylate] | > 7.94 µM | > 7.94 µM | – | > 23.8 µM | –
10 | COC(=O)c1cc2c(OCC(C)C)cc(N)cc2[nH]1 [Compound 8f, Methyl 6-amino-4-isobutoxy-1H-indole-2-carboxylate] | 7.18 µM | > 28.3 µM | 9.43 µM | > 9.43 µM | –
11 | CCCOc1ccc(N)c2[nH]c(C(=O)OC)cc12 [Compound 18f, Methyl 7-amino-4-propoxy-1H-indole-2-carboxylate] | < 50 µM | > 29.9 µM | > 3.31 µM | – | IC50 (Cox B3): 29.9 µM
12 | COC(=O)c1cc2c(OCc3ccccc3)cccc2[nH]1 [Compound 13e, Methyl 4-(benzyloxy)-1H-indole-2-carboxylate] | > 8.79 µM | > 8.79 µM | < 52 µM | > 26.4 µM | IC50 (A/FM/1/47): 26.4 µM
13 | COC(=O)c1cc2c(OCc3ccccc3)cc(NC(C)=O)cc2[nH]1 [Compound 2e, Methyl 6-acetamido-4-(benzyloxy)-1H-indole-2-carboxylate] | > 21.9 µM | > 21.9 µM | > 65.7 µM | – | –
14 | CCOC(=O)C1=C[C@@H](OC(CC)CC)[C@H](NC(C)=O)[C@@H](N)C1 [Oseltamivir, oseltamivir, reference compound] | – | – | 6.43 µM | 115 µM | –
15 | COC(=O)c1cc2c(OCC(C)C)cc(NC(C)=O)cc2[nH]1 [Compound 8e, Methyl 6-acetamido-4-isobutoxy-1H-indole-2-carboxylate] | > 24.4 µM | > 24.4 µM | 8.13 µM | > 8.13 µM | –
16 | COC(=O)c1cc2c(OC(C)C)cc(N)cc2[nH]1 [Compound 10f, Methyl 6-amino-4-isopropoxy-1H-indole-2-carboxylate] | > 89.6 µM | > 89.6 µM | < 52 µM | > 89.6 µM | IC50 (A/FM/1/47): 51.7 µM
17 | COC(=O)c1cc2c(OCc3ccccc3)cc(N)cc2[nH]1 [Compound 2f, Methyl 6-amino-4-(benzyloxy)-1H-indole-2-carboxylate] | 1.59 µM | > 2.78 µM | > 25.1 µM | – | –
18 | Nc1nc2c(ncn2COCCO)c(=O)[nH]1 [ACV, Acyclovir, reference compound] | – | 1.82 µM | – | – | –
19 | COC(=O)c1cc2ccc(N(C)C)cc2[nH]1 [Compound 15e, Methyl 6-(dimethylamino)-1H-indole-2-carboxylate] | < 50 µM | 102 µM | 102 µM | > 102 µM | anti-Cox B3 activity (in words) (Cox B3): showed anti-Cox B3 activity; IC50 (Cox B3): 44.7 µM; activity towards HSV-1 (in words) (HSV-1): showed activity; anti-influenza A activity (in words) (A/FM/1/47): showed anti-influenza A activity
20 | COC(=O)c1cc2ccc(NC(C)=O)cc2[nH]1 [Compound 14e, Methyl 6-acetamido-1H-indole-2-carboxylate] | 72.8 µM | > 287 µM | 95.8 µM | > 95.8 µM | anti-Cox B3 activity (in words) (Cox B3): showed anti-Cox B3 activity; anti-influenza A activity (in words) (A/FM/1/47): showed anti-influenza A activity
21 | CCOc1cc(N)cc2[nH]c(C(=O)OC)cc12 [Compound 9f, Methyl 6-amino-4-ethoxy-1H-indole-2-carboxylate] | > 31.7 µM | > 31.7 µM | 18.3 µM | > 31.7 µM | –
22 | COC(=O)c1cc2ccc(N)cc2[nH]1 [Compound 14f, Methyl 6-amino-1H-indole-2-carboxylate] | 67.5 µM | > 117 µM | 7.53 µM | 13 µM | anti-Cox B3 activity (in words) (Cox B3): showed anti-Cox B3 activity; anti-influenza A activity (in words) (A/FM/1/47): showed anti-influenza A activity; antiviral activity against the influenza B strain (in words) (B/Jifang/13/97): displayed antiviral activity
23 | COC(=O)c1cc2c(OCc3ccc(F)cc3)cc(N)cc2[nH]1 [Compound 3f, Methyl 6-amino-4-(4-fluorobenzyloxy)-1H-indole-2-carboxylate] | 4.55 µM | > 7.87 µM | > 70.8 µM | – | –
24 | Methyl 6-acetimidamido-4-methoxy-1H-indole-2-carboxylate [Compound 1e] | – | – | – | – | IC50 (Cox B3): > 254 µM; IC50 (HSV-1; HSV-1, 100TCID50, CPE, Reed and Muench): > 254 µM; IC50 (A/FM/1/47): 254 µM; IC50 (B/Jifang/13/97): 254 µM; antiviral activity against the influenza B strain (in words) (B/Jifang/13/97): displayed antiviral activity
25 | C=CCOc1cc(N)cc2[nH]c(C(=O)OC)cc12 [Compound 6f, Methyl 4-(allyloxy)-6-amino-1H-indole-2-carboxylate] | < 50 µM | > 30.1 µM | < 52 µM | > 30.1 µM | IC50 (Cox B3): 30.1 µM
